# Source: ChEMBL document CHEMBL1156313, “Structure-activity relationship of novel DAPK inhibitors identified by structure-based virtual screening” (Bioorg Med Chem, 2010)
# pIC50: −log10 of the molar value.
# Experiments:
# [1] = target: T1, Protein kinase C zeta type (Homo sapiens) (UniProt Q05513); test: Inhibition of PKCzeta at 10 uM
# T1 sequence (whole entry): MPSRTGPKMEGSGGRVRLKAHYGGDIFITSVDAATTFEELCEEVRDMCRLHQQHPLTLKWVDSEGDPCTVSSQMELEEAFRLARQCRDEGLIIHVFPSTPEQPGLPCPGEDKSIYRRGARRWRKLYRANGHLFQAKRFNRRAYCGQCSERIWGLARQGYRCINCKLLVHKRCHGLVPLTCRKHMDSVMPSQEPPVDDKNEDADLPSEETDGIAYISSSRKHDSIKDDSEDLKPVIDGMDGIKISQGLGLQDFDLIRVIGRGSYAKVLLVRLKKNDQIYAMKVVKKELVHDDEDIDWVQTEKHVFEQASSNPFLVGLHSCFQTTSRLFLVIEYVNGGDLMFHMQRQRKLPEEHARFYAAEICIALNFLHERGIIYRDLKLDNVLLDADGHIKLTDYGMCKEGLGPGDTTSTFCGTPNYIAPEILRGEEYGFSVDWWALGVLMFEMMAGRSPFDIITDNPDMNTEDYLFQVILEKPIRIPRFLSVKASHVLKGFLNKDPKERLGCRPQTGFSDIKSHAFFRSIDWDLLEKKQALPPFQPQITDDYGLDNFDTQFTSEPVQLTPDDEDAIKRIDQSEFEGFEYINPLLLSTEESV
# [2] = target: MAP kinase-activated protein kinase 5 (Homo sapiens) (UniProt Q8IW41); test: Inhibition of PRAK at 10 uM
# [3] = target: Serine/threonine-protein kinase Chk2 (Homo sapiens) (UniProt O96017); test: Inhibition of CHK2 at 10 uM
# [4] = target: Tyrosine-protein kinase Lck (Homo sapiens) (UniProt P06239); test: Inhibition of LCK at 10 uM
# [5] = target: Glycogen synthase kinase-3 beta (Homo sapiens) (UniProt P49841); test: Inhibition of GSK3-beta at 10 uM
# [6] = target: Ribosomal protein S6 kinase alpha-5 (Homo sapiens) (UniProt O75582); test: Inhibition of MSK1 at 10 uM
# [7] = target: Ribosomal protein S6 kinase alpha-1 (Homo sapiens) (UniProt Q15418); test: Inhibition of RSK1 at 10 uM
# [8] = target: Death-associated protein kinase 1 (Homo sapiens) (UniProt P53355); test: Inhibition of DAPK1 at 10 uM
# [9] = target: Tyrosine-protein kinase Fyn (Homo sapiens) (UniProt P06241); test: Inhibition of FYN at 10 uM
# [10] = target: Tyrosine-protein kinase ABL1 (Homo sapiens) (UniProt P00519); test: Inhibition of ABL at 10 uM
# [11] = target: Mitogen-activated protein kinase 1 (Homo sapiens) (UniProt P28482); test: Inhibition of ERK2 at 10 uM
# [12] = target: RAC-alpha serine/threonine-protein kinase (Homo sapiens) (UniProt P31749); test: Inhibition of AKT1 at 10 uM
# [13] = target: T2, Death-associated protein kinase 3 (Homo sapiens, UniProt O43293); test: Inhibition of human recombinant DAPK3 at 10 uM
# Target sequence in this assay (O43293 whole entry, looked up): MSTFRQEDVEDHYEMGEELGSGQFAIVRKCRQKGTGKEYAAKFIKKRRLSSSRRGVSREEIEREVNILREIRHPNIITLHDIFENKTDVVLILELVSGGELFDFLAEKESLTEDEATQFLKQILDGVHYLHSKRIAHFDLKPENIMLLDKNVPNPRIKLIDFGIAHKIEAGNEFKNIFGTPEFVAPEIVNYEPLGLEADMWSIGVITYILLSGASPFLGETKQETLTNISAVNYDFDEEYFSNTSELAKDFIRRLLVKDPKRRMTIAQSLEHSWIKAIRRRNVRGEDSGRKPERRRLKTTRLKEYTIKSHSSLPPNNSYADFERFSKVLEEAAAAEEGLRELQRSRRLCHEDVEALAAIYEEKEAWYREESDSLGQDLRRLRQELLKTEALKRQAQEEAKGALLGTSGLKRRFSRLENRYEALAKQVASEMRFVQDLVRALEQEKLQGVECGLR
# [14] = target: RAC-beta serine/threonine-protein kinase (Homo sapiens) (UniProt P31751); test: Inhibition of AKT2 at 10 uM
# [15] = target: Mitogen-activated protein kinase 14 (Homo sapiens) (UniProt Q16539); test: Inhibition of P38alpha at 10 uM
# [16] = target: Hepatocyte growth factor receptor (Homo sapiens) (UniProt P08581); test: Inhibition of MET at 10 uM
# [17] = target: T3, Serine/threonine-protein kinase Chk1 (Homo sapiens) (UniProt O14757); test: Inhibition of CHK1 at 10 uM
# T3 sequence (whole entry): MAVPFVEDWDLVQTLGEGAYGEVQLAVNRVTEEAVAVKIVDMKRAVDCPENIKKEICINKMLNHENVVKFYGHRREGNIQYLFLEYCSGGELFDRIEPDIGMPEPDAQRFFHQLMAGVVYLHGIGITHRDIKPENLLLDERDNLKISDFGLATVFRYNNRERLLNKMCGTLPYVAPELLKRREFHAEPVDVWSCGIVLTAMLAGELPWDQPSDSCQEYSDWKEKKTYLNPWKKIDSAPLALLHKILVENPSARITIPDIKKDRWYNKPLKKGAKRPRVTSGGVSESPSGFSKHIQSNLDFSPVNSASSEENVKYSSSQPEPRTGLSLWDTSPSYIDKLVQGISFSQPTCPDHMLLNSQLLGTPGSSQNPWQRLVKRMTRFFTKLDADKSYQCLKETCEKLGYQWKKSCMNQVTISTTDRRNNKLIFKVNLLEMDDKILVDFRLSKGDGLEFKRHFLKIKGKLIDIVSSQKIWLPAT
# [18] = target: MAP kinase-activated protein kinase 2 (Homo sapiens) (UniProt P49137); test: Inhibition of MAPKAPK2 at 10 uM
# [19] = target: Proto-oncogene tyrosine-protein kinase Src (Homo sapiens) (UniProt P12931); test: Inhibition of SRC at 10 uM
# [20] = target: Mitogen-activated protein kinase 3 (Homo sapiens) (UniProt P27361); test: Inhibition of ERK1 at 10 uM
# [21] = target: T4, Aurora kinase A (Homo sapiens) (UniProt O14965); test: Inhibition of Aurora A at 10 uM
# T4 sequence (whole entry): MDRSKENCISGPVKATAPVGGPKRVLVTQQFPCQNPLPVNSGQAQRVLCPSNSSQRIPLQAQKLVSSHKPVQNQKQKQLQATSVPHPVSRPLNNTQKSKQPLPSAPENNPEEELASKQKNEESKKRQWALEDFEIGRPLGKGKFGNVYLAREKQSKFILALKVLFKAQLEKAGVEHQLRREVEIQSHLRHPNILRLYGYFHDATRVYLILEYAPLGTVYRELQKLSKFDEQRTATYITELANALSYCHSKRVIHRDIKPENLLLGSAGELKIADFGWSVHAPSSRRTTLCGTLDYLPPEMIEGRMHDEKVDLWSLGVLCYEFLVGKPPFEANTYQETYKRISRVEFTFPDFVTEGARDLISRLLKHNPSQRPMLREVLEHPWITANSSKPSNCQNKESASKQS
# [22] = target: Tyrosine-protein kinase Lyn (Homo sapiens) (UniProt P07948); test: Inhibition of LYN at 10 uM
# [23] = target: Insulin receptor (Homo sapiens) (UniProt P06213); test: Inhibition of INSR at 10 uM
# [24] = Inhibition of PKA at 10 uM
# [25] = target: T2, Death-associated protein kinase 3; test: Inhibition of human recombinant DAPK3 at 1 uM
# Target sequence in this assay (O43293 whole entry, looked up): as the sequence (O43293 whole entry, looked up) above
# [26] = target: T5, Serine/threonine-protein kinase D2 (Homo sapiens) (UniProt Q9BZL6); test: Inhibition of PKD2 at 10 uM
# T5 sequence (whole entry): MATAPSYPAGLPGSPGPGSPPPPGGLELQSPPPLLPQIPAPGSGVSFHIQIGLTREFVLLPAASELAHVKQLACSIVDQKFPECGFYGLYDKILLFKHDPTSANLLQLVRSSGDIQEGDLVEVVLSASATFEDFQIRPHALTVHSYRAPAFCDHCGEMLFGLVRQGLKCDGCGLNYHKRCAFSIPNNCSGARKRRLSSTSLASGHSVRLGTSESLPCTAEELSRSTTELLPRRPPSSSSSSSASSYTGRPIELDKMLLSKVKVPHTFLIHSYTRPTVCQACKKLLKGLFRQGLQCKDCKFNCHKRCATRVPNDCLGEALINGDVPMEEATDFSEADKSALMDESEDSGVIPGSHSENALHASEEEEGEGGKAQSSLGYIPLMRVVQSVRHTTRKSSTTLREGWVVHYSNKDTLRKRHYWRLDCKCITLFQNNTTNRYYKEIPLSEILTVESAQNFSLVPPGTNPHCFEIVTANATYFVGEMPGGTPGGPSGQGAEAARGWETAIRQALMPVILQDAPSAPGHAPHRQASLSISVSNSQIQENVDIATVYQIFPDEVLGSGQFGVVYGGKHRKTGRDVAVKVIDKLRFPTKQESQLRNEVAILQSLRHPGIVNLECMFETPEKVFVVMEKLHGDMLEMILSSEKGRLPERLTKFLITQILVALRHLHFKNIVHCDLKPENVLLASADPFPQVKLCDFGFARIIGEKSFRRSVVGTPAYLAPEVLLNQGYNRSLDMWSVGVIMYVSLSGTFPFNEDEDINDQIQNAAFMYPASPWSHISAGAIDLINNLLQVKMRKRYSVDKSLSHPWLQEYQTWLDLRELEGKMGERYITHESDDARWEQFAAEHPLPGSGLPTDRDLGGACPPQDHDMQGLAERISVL
# [27] = target: T2, Death-associated protein kinase 3; test: Inhibition of human recombinant DAPK3
# Sequence of Tyrosine-protein kinase Lck (Homo sapiens) (P06239 2-509 limits assumed): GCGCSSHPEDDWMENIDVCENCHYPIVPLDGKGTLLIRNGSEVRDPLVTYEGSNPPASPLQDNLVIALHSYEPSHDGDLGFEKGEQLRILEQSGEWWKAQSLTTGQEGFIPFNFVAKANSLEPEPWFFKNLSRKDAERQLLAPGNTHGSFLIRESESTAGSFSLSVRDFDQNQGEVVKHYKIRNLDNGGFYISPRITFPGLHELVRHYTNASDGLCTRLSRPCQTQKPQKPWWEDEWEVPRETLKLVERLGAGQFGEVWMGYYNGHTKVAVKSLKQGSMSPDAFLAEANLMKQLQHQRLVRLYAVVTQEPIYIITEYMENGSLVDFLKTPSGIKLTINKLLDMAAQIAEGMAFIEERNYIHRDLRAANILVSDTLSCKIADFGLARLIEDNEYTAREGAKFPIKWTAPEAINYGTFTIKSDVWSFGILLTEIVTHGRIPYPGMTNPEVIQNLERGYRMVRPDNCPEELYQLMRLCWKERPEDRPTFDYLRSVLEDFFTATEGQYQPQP
# Sequence of Mitogen-activated protein kinase 3 (Homo sapiens) (P27361 whole entry): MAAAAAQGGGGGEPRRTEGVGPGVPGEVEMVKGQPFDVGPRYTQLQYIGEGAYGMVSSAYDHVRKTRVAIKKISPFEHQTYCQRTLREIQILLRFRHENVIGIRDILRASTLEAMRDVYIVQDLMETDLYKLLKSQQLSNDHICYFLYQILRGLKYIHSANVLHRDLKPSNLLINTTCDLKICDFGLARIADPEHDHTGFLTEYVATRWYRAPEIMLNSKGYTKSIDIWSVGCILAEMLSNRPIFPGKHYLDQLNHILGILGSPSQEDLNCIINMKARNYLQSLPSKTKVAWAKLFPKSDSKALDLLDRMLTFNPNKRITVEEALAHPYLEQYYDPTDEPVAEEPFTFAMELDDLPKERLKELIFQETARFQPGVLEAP
# Sequence of RAC-alpha serine/threonine-protein kinase (Homo sapiens) (P31749 whole entry): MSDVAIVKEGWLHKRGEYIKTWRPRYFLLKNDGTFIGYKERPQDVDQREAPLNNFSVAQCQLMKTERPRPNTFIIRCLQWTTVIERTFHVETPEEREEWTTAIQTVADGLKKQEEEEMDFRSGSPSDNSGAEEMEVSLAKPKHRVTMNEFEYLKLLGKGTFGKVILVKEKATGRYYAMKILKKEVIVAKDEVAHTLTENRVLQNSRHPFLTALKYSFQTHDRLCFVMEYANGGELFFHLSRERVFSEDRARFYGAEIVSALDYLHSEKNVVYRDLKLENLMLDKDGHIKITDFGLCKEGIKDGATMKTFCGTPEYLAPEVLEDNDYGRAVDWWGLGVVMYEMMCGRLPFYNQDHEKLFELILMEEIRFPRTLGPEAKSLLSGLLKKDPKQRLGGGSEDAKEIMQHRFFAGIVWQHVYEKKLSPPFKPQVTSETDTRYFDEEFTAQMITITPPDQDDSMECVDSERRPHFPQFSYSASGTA
# Sequence of Mitogen-activated protein kinase 1 (Homo sapiens) (P28482 whole entry): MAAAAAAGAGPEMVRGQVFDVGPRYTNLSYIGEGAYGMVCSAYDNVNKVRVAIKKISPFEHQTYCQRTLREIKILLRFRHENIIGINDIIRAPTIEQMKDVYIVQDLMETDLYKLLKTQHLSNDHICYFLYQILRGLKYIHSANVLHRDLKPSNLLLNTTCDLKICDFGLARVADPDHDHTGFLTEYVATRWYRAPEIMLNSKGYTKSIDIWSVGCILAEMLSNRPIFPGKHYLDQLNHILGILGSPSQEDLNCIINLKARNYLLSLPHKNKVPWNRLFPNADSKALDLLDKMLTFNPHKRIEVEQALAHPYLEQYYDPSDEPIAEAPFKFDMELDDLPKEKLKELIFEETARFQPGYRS
# Sequence of RAC-beta serine/threonine-protein kinase (Homo sapiens) (P31751 whole entry): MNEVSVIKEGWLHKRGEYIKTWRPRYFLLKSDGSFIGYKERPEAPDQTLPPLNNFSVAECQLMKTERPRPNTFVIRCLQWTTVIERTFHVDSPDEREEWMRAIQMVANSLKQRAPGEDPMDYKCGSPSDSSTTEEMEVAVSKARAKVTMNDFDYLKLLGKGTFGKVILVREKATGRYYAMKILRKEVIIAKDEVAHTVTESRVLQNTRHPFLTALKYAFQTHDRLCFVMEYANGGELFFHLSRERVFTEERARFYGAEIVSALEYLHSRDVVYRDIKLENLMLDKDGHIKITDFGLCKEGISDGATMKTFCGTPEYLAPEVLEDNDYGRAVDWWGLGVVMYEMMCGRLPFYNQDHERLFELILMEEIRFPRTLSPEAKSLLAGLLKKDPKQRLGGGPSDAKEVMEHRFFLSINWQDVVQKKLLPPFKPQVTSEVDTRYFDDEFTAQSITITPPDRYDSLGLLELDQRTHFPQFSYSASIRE
# Sequence of Death-associated protein kinase 1 (Homo sapiens) (P53355 whole entry, looked up): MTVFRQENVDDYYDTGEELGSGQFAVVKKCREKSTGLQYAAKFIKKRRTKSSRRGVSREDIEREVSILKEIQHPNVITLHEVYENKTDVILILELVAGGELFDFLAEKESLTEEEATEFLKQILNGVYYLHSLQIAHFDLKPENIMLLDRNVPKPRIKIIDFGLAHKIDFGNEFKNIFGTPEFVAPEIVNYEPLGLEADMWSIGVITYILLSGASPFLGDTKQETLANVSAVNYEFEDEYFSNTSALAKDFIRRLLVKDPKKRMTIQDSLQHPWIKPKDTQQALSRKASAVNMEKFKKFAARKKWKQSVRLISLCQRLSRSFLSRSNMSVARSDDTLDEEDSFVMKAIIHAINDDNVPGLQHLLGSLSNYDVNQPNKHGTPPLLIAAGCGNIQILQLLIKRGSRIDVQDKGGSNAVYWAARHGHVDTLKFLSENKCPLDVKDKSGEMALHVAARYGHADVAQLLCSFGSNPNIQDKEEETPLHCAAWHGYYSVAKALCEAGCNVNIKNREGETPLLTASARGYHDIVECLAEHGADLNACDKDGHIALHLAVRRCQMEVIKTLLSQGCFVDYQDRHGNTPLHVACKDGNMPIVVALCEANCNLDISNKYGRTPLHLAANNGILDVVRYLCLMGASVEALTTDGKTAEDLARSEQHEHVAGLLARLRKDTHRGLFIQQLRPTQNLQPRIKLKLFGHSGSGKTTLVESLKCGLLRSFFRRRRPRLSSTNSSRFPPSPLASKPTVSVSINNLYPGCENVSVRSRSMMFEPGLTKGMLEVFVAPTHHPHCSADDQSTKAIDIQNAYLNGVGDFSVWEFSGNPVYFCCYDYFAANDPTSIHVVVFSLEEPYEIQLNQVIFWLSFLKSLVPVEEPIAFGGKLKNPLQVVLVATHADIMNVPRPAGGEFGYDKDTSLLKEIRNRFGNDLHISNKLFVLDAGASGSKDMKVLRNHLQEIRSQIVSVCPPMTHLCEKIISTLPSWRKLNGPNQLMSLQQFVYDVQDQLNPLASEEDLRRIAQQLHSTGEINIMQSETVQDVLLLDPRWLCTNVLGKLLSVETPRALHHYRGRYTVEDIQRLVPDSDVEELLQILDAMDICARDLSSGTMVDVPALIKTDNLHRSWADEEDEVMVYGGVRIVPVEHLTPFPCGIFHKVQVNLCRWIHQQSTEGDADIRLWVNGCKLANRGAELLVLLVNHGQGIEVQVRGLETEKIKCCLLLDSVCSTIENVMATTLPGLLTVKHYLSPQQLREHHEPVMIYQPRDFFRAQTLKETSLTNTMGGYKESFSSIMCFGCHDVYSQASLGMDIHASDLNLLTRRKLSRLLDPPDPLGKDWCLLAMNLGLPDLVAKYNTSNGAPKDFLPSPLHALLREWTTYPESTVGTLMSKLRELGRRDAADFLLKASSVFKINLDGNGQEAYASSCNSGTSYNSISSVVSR
# Sequence of Mitogen-activated protein kinase 14 (Homo sapiens) (Q16539 whole entry): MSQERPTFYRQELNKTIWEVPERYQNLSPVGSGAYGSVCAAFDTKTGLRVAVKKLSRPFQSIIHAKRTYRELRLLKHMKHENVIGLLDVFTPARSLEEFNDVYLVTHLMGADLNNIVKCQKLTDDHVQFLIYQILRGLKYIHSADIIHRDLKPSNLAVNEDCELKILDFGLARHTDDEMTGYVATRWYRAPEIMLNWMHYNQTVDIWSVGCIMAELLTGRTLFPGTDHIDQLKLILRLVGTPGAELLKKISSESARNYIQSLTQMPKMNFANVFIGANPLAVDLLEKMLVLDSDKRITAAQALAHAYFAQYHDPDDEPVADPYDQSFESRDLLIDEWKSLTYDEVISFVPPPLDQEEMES
# Sequence of Glycogen synthase kinase-3 beta (Homo sapiens) (P49841 whole entry, looked up): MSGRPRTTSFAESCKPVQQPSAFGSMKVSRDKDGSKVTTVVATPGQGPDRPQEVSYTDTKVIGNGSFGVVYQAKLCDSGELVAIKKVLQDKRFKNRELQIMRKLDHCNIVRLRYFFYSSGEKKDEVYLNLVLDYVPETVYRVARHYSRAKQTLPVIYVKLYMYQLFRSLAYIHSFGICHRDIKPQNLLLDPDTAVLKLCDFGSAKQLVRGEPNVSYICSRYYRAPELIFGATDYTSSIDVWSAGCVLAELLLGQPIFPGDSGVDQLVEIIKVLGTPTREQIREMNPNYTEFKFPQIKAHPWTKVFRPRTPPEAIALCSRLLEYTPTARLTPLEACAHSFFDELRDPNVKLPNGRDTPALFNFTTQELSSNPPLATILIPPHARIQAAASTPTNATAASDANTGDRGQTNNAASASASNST
inhibition [1] [%],inhibition [3] [%],inhibition [4] [%],inhibition [5] [%],inhibition [6] [%],inhibition [7] [%],inhibition [11] [%],inhibition [12] [%],inhibition [14] [%],inhibition [15] [%],inhibition [17] [%],inhibition [19] [%],inhibition [20] [%],inhibition [21] [%],Compound,inhibition [8] [%],inhibition [13] [%],also measured
3,17,8,3,13,4,20,15,17,8,12,5,7,14,O=C1OC(/C=C/c2ccccc2)=NC/1=C\c1cccnc1,91,100,inhibition [2]: 5%; inhibition [9]: 1%; inhibition [10]: 9%; inhibition [16]: 3%; inhibition [18]: 46%; inhibition [22]: 1%; inhibition [23]: 4%
-3,24,8,7,0,10,10,13,17,2,12,3,25,15,O=C1OC(c2ccc(Cl)cc2)=N/C1=C\c1cccnc1,76,96,inhibition [24]: 9%; inhibition [25]: 85%; inhibition [26]: 17%; pIC50 [27]: 6.28
